{
  "source": "paper PMC10762250",
  "about": "“Molecular mechanism of antihistamines recognition and regulation of the histamine H1 receptor” (Nature Communications, 2024)",
  "key": {"H1R-H450A [1]": {"molecular_target": "T1, H1R-H450A (Homo sapiens, UniProt P35367, H450A)", "T1 sequence (P35367 whole entry H450A)": "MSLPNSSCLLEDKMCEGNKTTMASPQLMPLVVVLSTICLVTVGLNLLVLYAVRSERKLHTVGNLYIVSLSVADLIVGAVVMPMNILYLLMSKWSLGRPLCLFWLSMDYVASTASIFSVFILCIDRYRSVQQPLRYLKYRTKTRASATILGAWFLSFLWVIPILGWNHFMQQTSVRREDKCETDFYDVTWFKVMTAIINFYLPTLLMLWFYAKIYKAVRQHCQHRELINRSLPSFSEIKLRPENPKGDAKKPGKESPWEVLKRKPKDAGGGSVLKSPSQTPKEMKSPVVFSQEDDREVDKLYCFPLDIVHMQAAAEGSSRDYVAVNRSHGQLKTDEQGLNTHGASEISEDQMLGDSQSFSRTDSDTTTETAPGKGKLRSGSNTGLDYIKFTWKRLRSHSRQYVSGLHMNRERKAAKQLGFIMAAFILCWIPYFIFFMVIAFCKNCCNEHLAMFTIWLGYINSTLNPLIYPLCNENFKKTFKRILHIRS", "settings": "H450A vs wild type", "description": "(§1) HEK293 cells were seeded into 24-well culture plates (Corning) at a density of 0.1 million per well and incubated overnight at 37 °C with 5% CO2. […] Twenty-four hours after transfection, the culture media was removed, and transfected cells were harvested and washed with Dulbecco’s phosphate buffered saline (DPBS) buffer (Gibco) twice and then resuspended in Hank’s balanced salt solution (HBSS) buffer (Beyotime) at a density of 1.0 × 10^6 cells per milliliter. […] The accumulation of IP1 was calculated according to a standard dose–response curve in GraphPad Prism 8 (GraphPad Software). Data are represented as the mean ± SEM, n = 3 independent samples."}, "[2]": {"system": "non-H1R targets, including the potassium channel", "settings": "cited from earlier work"}, "H1R-H450A [3]": {"molecular_target": "T1, H1R-H450A", "test": "cell-based", "description": "as §1"}, "hERG potassium channel": {"system": "hERG potassium channel", "settings": "cited from earlier work"}, "guinea pig H1R F436A": {"system": "guinea pig H1R F436A", "settings": "cited from earlier work"}, "H1R Y431^6.51 mutant": {"system": "H1R Y431^6.51 mutant", "set-up": "method as in PMID 25013351", "settings": "Y431 single mutant; cited from earlier work"}, "H1R Y108^3.33 mutant": {"system": "H1R Y108^3.33 mutant", "set-up": "method as in PMID 25013351", "settings": "Y108 single mutation; cited from earlier work"}, "H1R N198A": {"system": "H1R N198A", "settings": "cited from earlier work"}, "H1R W158^4.56 mutant": {"system": "H1R W158^4.56 mutant", "set-up": "method as in PMID 25013351", "settings": "W158 single mutation; cited from earlier work"}, "H1R F199^5.47 mutant": {"system": "H1R F199^5.47 mutant", "set-up": "method as in PMID 25013351", "settings": "F199 single mutation; cited from earlier work"}, "H1R W428^6.48 mutant": {"system": "H1R W428^6.48 mutant", "set-up": "method as in PMID 25013351", "settings": "W428 single mutation; cited from earlier work"}, "H1R F432^6.52 mutant": {"system": "H1R F432^6.52 mutant", "set-up": "method as in PMID 25013351", "settings": "F432 single mutation; cited from earlier work"}},
  "data": [
    {"compound": "CN(c1nccc(=O)[nH]1)C1CCN(c2nc3ccccc3n2Cc2ccc(F)cc2)CC1", "note": "[mizolastine]", "values": [
      {"measurement": "Effect of mutation on ability/efficacy to inhibit H1R signaling", "setting": "H1R-H450A [1]", "result": "obviously crippled"},
      {"measurement": "Cross-interaction with non-H1R targets", "setting": "[2]", "result": "does not cross-interact with any non-H1R targets"},
      {"measurement": "Emax", "setting": "H1R-H450A [3]", "result": "36.1 ± 4.94", "unit": "%"},
      {"measurement": "IC50", "setting": "H1R-H450A [3]", "result": "5.14 ± 0.13", "unit": "nM"}
    ]},
    {"compound": "COc1ccc(CCN2CCC(Nc3nc4ccccc4n3Cc3ccc(F)cc3)CC2)cc1", "note": "[astemizole]", "values": [
      {"measurement": "hERG potassium channel block", "setting": "hERG potassium channel", "result": "blocks"}
    ]},
    {"compound": "COc1ccc(CN(CCN(C)C)c2ccccn2)cc1", "note": "[mepyramine]", "values": [
      {"measurement": "Decrease in affinity by mutation", "setting": "guinea pig H1R F436A", "result": 20, "unit": "fold"},
      {"measurement": "Effect of mutation on binding activity", "setting": "H1R Y431^6.51 mutant", "result": "completely disrupted"},
      {"measurement": "Effect of mutation on binding activity", "setting": "H1R Y108^3.33 mutant", "result": "completely disrupted"},
      {"measurement": "Effect of mutation on affinity", "setting": "H1R N198A", "result": "did not cause obvious affinity loss"},
      {"measurement": "Effect of mutation on binding activity", "setting": "H1R W158^4.56 mutant", "result": "completely disrupted"},
      {"measurement": "Effect of mutation on H1R affinity", "setting": "H1R F199^5.47 mutant", "result": "abolished"},
      {"measurement": "Effect of mutation on H1R affinity", "setting": "H1R W428^6.48 mutant", "result": "abolished"},
      {"measurement": "Effect of mutation on H1R affinity", "setting": "H1R F432^6.52 mutant", "result": "abolished"}
    ]}
  ]
}
